Literature values, collected in US20230243817A1, “USES, METHODS AND PRODUCTS RELATING TO OLIGOMERIC LIPOPOLYSACCHARIDE BINDING PROTEINS” (priority 2020, published 2023).

Conditions: for Kd: read-out: KD for LPS

Molecule | Kd [µM] | Reported binding affinity (depending on the bacterial strain)
TLR4: human LPS immune receptor | 141 | 
MD-2: human LPS immune receptor | 2.33 | 
polymyxin B [reference compound] | 48 | micromolar range
LPS binding protein: human LPS immune receptor (protein, UniProt P18428 26-481, looked up) Lipopolysaccharide-binding …: ANPGLVARITDKGLQYAAQEGLLALQSELLRITLPDFTGDLRIPHVGRGRYEFHSLNIHSCELLHSALRPVPGQGLSLSISDSSIRVQGRWKVRKSFFKLQGSFDVSVKGISISVNLLLGSESSGRPTVTASSCSSDIADVEVDMSGDLGWLLNLFHNQIESKFQKVLESRICEMIQKSVSSDLQPYLQTLPVTTEIDSFADIDYSLVEAPRATAQMLEVMFKGEIFHRNHRSPVTLLAAVMSLPEEHNKMVYFAISDYVFNTASLVYHEEGYLNFSITDDMIPPDSNIRLTTKSFRPFVPRLARLYPNMNLELQGSVPSAPLLNFSPGNLSVDPYMEIDAFVLLPSSSKEPVFRLSVATNVSATLTFNTSKITGFLKPGKVKVELKESKVGLFNAELLEALLNYYILNTFYPKFNDKLAEGFPLPLLKRVQLYDLGLQIHKDFLFLGANVQYMRV | 0.0035 | 
